The supplement of paper PMC10307832

What was measured:
Experiment in all cases: relative viability (nuclei count vs DMSO), 5 days (fraction); higher = more cells survive
Bleomycin + Tozasertib = compound: CC1=C(N=C(N=C1N)[C@H](CC(=O)N)NC[C@@H](C(=O)N)N)C(=O)N[C@@H]([C@H](C2=CN=CN2)OC3C(C(C(C(O3)CO)O)O)OC4C(C(C(C(O4)CO)O)OC(=O)N)O)C(=O)N[C@H](C)[C@H]([C@H](C)C(=O)N[C@@H]([C@@H](C)O)C(=O)NCCC5=NC(=CS5)C6=NC(=CS6)C(=O)NCCC[S+](C)C)O [Bleomycin] + Cc1cc(Nc2cc(N3CCN(C)CC3)nc(Sc3ccc(NC(=O)C4CC4)cc3)n2)n[nH]1 [Tozasertib] (partner 0.1 µM); settings: main component drawn
Method in brief: (§1)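 Lung cancer cell lines were pin-tool dosed in 1536-well plates on the day after seeding, with either a lone drug or a fixed anchor-drug dose plus five library-drug doses (not always all listed) in √10 steps. Nuclei were counted on 4× images after 5 days. Relative viability is the ratio of treated-well to vehicle-well nuclei counts, with each value a median of duplicate plates.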

Etoposide + Phenformin = compound: COc1cc([C@@H]2c3cc4c(cc3[C@@H](O[C@@H]3O[C@@H]5CO[C@@H](C)O[C@H]5[C@H](O)[C@H]3O)[C@H]3COC(=O)[C@H]23)OCO4)cc(OC)c1O [Etoposide] + N=C(N)NC(=N)NCCc1ccccc1 [Phenformin] (partner 250 µM)
Method in brief: as §1

Bleomycin + Dasatinib = compound: CC1=C(N=C(N=C1N)[C@H](CC(=O)N)NC[C@@H](C(=O)N)N)C(=O)N[C@@H]([C@H](C2=CN=CN2)OC3C(C(C(C(O3)CO)O)O)OC4C(C(C(C(O4)CO)O)OC(=O)N)O)C(=O)N[C@H](C)[C@H]([C@H](C)C(=O)N[C@@H]([C@@H](C)O)C(=O)NCCC5=NC(=CS5)C6=NC(=CS6)C(=O)NCCC[S+](C)C)O [Bleomycin] + Cc1nc(Nc2ncc(C(=O)Nc3c(C)cccc3Cl)s2)cc(N2CCN(CCO)CC2)n1 [Dasatinib] (partner 0.075 µM); settings: main component drawn
Method in brief: as §1

Bleomycin + OSI-027 = compound: CC1=C(N=C(N=C1N)[C@H](CC(=O)N)NC[C@@H](C(=O)N)N)C(=O)N[C@@H]([C@H](C2=CN=CN2)OC3C(C(C(C(O3)CO)O)O)OC4C(C(C(C(O4)CO)O)OC(=O)N)O)C(=O)N[C@H](C)[C@H]([C@H](C)C(=O)N[C@@H]([C@@H](C)O)C(=O)NCCC5=NC(=CS5)C6=NC(=CS6)C(=O)NCCC[S+](C)C)O [Bleomycin] + COc1cccc2cc(-c3nc([C@H]4CC[C@H](C(=O)O)CC4)n4ncnc(N)c34)[nH]c12 [OSI-027] (partner 0.5 µM); settings: main component drawn
Method in brief: as §1

Cell Line: UMC-11
- relative viability (Bleomycin + Tozasertib; first compound 0.01 µM): 0.185
- relative viability (Bleomycin + Tozasertib; first compound 0.03162 µM): 0.196
- relative viability (Bleomycin + Tozasertib; first compound 0.1 µM): 0.208
- relative viability (Bleomycin + Tozasertib; first compound 0.3162 µM): 0.203
- relative viability (Bleomycin + Tozasertib; first compound 1 µM): 0.18
- relative viability (Etoposide + Phenformin; first compound 0.01 µM): 0.333
- relative viability (Etoposide + Phenformin; first compound 0.03162 µM): 0.341
- relative viability (Etoposide + Phenformin; first compound 0.1 µM): 0.275
- relative viability (Etoposide + Phenformin; first compound 0.3162 µM): 0.233
- relative viability (Etoposide + Phenformin; first compound 1 µM): 0.207
- relative viability (Bleomycin + Dasatinib; first compound 0.01 µM): 0.448
- relative viability (Bleomycin + Dasatinib; first compound 0.03162 µM): 0.511
- relative viability (Bleomycin + Dasatinib; first compound 0.1 µM): 0.495
- relative viability (Bleomycin + Dasatinib; first compound 0.3162 µM): 0.385
- relative viability (Bleomycin + Dasatinib; first compound 1 µM): 0.328
- relative viability (Bleomycin + OSI-027; first compound 0.01 µM): 0.403
- relative viability (Bleomycin + OSI-027; first compound 0.03162 µM): 0.497
- relative viability (Bleomycin + OSI-027; first compound 0.1 µM): 0.482
- relative viability (Bleomycin + OSI-027; first compound 0.3162 µM): 0.393
- relative viability (Bleomycin + OSI-027; first compound 1 µM): 0.353
